Measured values from patent US20160120858A1 (ACADEMIA SINICA, priority 2014, published 2016).

Experiments:
[1] = system: AMPAR; assay: AMPA-fEPSPs, input-output and paired pulse ratio, hippocampal slices; format: cell-based, mouse; details: 4 uM; for AMPA-fEPSPs: WT and KO; for Input-output relationship (AMPA-fEPSP slopes against fiber volley): WT and Shank2^−/− SC-CA1 synapses
Experimental: For electrophysiological experiments, sagittal hippocampal slices (400 uM thick for extracellular, 300 uM thick for intracellular recordings) of Shank2^-/- mice (or ZnT3^-/- mice) and their wild-type littermates were prepared using a vibratome (Leica VT1200) in ice-cold dissection buffer containing (in mM) 212 sucrose, 25 NaHCO3, 5 KCl, 1.25 NaH2PO4, 0.5 CaCl2, 3.5 MgSO4, 10 D-glucose, 1.25 L-ascorbic acid, and 2 Na-pyruvate bubbled with 95% 02/5% CO2. CA3 was removed to prevent epileptiform activity. Slices were restored for 1 hour in 32° C. in a normal artificial CSF (ACSF) (In units of mM: 124 NaCl, 2.5 kCl, 1 NaH2PO4, 25 NaHCO3, 10 glucose, 2 CaC12, 2 Mg504 oxidized by 95% 02/5% CO2) For the recording, a single slice was moved to and maintained in submerged-type chamber at 28° C., continuously perfused with ACSF (2 mL/minute) saturated with 95% 02/5% CO2. Stimulation and recording pipettes were pulled from borosilicate glass capillaries (Harvard Apparatus) using a micropipette electrode puller ([…]). For extracellular recordings, mouse hippocampal slices at the age of postnatal day 21 to 35 were used. Field excitatory postsynaptic potentials (fEPSPs) were recorded in the stratum radiatum of the hippocampal CA1 region using pipettes filled with ACSF (1 MΩ). fEPSP was amplified (Multiclamp 700B, Molecular Devices), and digitized (Digidata 1440A, Molecular Devices) for measurements. The Schaffer collateral pathway was stimulated every 20 seconds with pipettes filled with ACSF (0.3 to 0.5 MΩ). The stimulation intensity was adjusted to yield a half-maximal response, and three successive responses were averaged and expressed relative to the normalized baseline. To induce LTP, high frequency stimulation (100 Hz, 1 s) was applied after a stable baseline was acquired.

[2] = system: NMDAR; assay: Simultaneous NMDA- and AMPA-eEPSCs at −40 mV, patch-clamp, hippocampal slices; format: cell-based, mouse; details: for NMDA-eEPSCs (NMDAR function) at −40 mV: CQ 4 uM, 20 minutes, WT and Shank2^−/− SC-CA1 synapses
Experimental: For electrophysiological experiments, sagittal hippocampal slices (400 uM thick for extracellular, 300 uM thick for intracellular recordings) of Shank2^−/− mice (or ZnT3^−/− mice) and their wild-type littermates were prepared using a vibratome (Leica VT1200) in ice-cold dissection buffer containing (in mM) 212 sucrose, 25 NaHCO3, 5 KCl, 1.25 NaH2PO4, 0.5 CaCl2, 3.5 MgSO4, 10 D-glucose, 1.25 L-ascorbic acid, and 2 Na-pyruvate bubbled with 95% 02/5% CO2. CA3 was removed to prevent epileptiform activity. Slices were restored for 1 hour in 32° C. in a normal artificial CSF (ACSF) (In units of mM: 124 NaCl, 2.5 kCl, 1 NaH2PO4, 25 NaHCO3, 10 glucose, 2 CaC12, 2 Mg504 oxidized by 95% 02/5% CO2) For the recording, a single slice was moved to and maintained in submerged-type chamber at 28° C., continuously perfused with ACSF (2 mL/minute) saturated with 95% 02/5% CO2. Stimulation and recording pipettes were pulled from borosilicate glass capillaries (Harvard Apparatus) using a micropipette electrode puller (Narishege).
Whole-cell patch-clamp recordings of hippocampal CA1 pyramidal neurons were also made using a MultiClamp 700B amplifier (Molecular Devices) and Digidata 1440A (Molecular Devices). During whole-cell patch-clamp recordings, series resistance was monitored each sweep by measuring the peak amplitude of the capacitance currents in response to short hyperpolarizing step pulse (5 mV, 40 ms); only cells with a change in <25% were included in the analysis. For NMDA (N-Methyl-D-aspartate)/AMPA (alpha-amino-3-hydroxy-5-methylisoxazole-4-propionic acid) ratio experiments, mouse hippocampal slices at the age of postnatal day 17 to 25 were used. The recording pipettes (2.5 to 3.5 MΩ) were filled with an internal solution containing the following (in mM): 100 CsMeSO4, 10 TEA-Cl, 8 NaCl, 10 HEPES, 5 QX-314-C1, 2 Mg-ATP, 0.3 Na-GTP, 10 EGTA, with pH 7.25, 295 mOsm). CA1 pyramidal neurons were voltage-clamped at −70 mV, and EPSPs were evoked at every 15 sec. AMPAR-mediatedEPSCs were recorded at −70 mV, and 30 consecutive responses were recorded after stable baseline. After recording AMPAR-mediated EPSPs, holding potential was changed to +40 mV to record NMDA receptor-mediated EPSPs. NMDA component was measured at 60 ms after the stimulation. The NMDA/AMPA ratio was determined by dividing the mean value of 30 NMDA components of EPSPs by the mean value of 30 AMPAR-mediated EPSC peak amplitudes. […] For measuring AMPAR-mediated and NMDAR-mediated EPSCs together upon CQ treatment, pyramidal neurons were voltage-clamped at −40 mV, and EPSCs were evoked at every 15 sec. AMPAR-mediated EPSC was determined as a peak amplitude of EPSC, and NMDAR-mediated EPSC as a component at 60 ms after stimulation. NMDA/AMPA ratio at −40 mV was calculated by using both values, and monitored during the experimental process. […] Picrotoxin (100 uM) was always added to ACSF to block GABAA receptor-mediated currents.

## Oc1c(I)cc(Cl)c2cccnc12 [clioquinol, 5-Chloro-7-Iodo-8-Hydroxyquinoline]
[1]
  AMPA-fEPSPs: not affected
  Input-output relationship (AMPA-fEPSP slopes against fiber volley): had no effect
[1]; listed as CQ
  AMPA-fEPSPs: has no effect on AMPA-fEPSPs
  Input-output relationship (AMPA-fEPSP slopes against fiber volley): has no effect on the input-output relationship
[2]
  NMDA-eEPSCs (NMDAR function) at −40 mV: increased NMDA-eEPSCs
[2]; listed as CQ
  NMDA-eEPSCs (NMDAR function) at −40 mV: enhances NMDAR function
[2]; clioquinol treatment, WT and Shank2^−/−
  AMPA-eEPSCs at −40 mV: not affected
[2]; peptide 0.03 mg/mL in internal solution
  NMDAR function (NMDA-eEPSCs at −40 mV) in the presence of sSrc (40-58): effectively enhances NMDAR function
[2]; peptide 0.03 mg/mL in internal solution, Shank2^−/− SC-CA1 synapses
  NMDAR function (NMDA-eEPSCs at −40 mV) in the presence of Src (40-58): fails to enhance NMDAR function
